Source: patent US10301284B2, “Therapeutic inhibitory compounds” (LifeSci Pharmaceuticals, Inc., priority 2016, dated 2019)
Read-outs that look alike come from different tables or passages of the source.

How the values were obtained:
human Plasma Kallikrein [1] = molecular target: T1, human Plasma Kallikrein (Homo sapiens (Human), UniProt P03952); assay: In vitro enzyme inhibition of human plasma kallikrein (Pro-Phe-Arg-AMC cleavage); format: biochemical; settings: human plasma kallikrein, PFR-AMC substrate, 37° C.; read-out: hPK IC50
Method in brief: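 Human plasma kallikrein preincubated 5 min at 37 °C with compound in 50 mM Tris-HCl pH 7.5, 150 mM NaCl, 0.01% Triton X-100. Reaction started with Pro-Phe-Arg-AMC, fluorescence read every 43 s for 1 h at 37 °C. IC50 from highest mean velocity over 20 reads (~15 min).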

human Plasma Kallikrein [2] = molecular target: T1, human Plasma Kallikrein; assay: Human whole blood kallikrein inhibition (ellagic acid-activated human plasma, Z-FR-2-AMC substrate); format: biochemical; settings: human plasma activated with ellagic acid, Z-FR-2-AMC 40 μM, 37° C.; read-out: HWB EC50
Method in brief: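 Platelet-depleted human plasma was activated with ellagic acid and diluted in 50 mM Tris-HCl pH 7.2, 150 mM NaCl, 0.01% Triton X-100, then preincubated 15 min at 37 °C. Compounds (0.076 nM–20 μM, duplicates) were added for 5 min at 37 °C. Z-FR-2-AMC (40 μM final) was read kinetically at ex 330/em 440 nm for 60 min, and IC50 was taken from a variable-slope fit.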

[3] = Pharmacokinetic evaluation, oral exposure in rats; format: in vivo; settings: male Sprague-Dawley rats, single oral dose 10 mg/kg via oral gavage, plasma
Procedure: Pharmacokinetic studies of select compounds were performed to assess the pharmacokinetic properties. Male Sprague-Dawley rats were administered a single oral dose of the test compound at 10 mg/kg (dose concentration: 2 mg/mL, dose volume: 5 ml/kg) via oral gavage. Blood samples were collected via jugular vein at pre-dose, post-dose 5 min, 15 min, 30 min, 1 h, 2 h, 4 h, 6 h, 8 h, 10 h and 24 h, and centrifuged (8000 rpm for 6 minutes at 2-8° C.). The resulting plasma fractions were analyzed by LC/MS/MS to determine the concentration of the test compound.

T1 sequence (P03952 391-638 limits assumed): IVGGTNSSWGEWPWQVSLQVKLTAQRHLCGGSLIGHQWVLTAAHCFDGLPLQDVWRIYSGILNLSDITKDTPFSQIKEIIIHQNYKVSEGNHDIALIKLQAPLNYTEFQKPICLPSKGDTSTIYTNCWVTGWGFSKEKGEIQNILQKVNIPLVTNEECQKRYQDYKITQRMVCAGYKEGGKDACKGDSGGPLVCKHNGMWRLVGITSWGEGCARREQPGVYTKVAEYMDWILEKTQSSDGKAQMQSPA
T1 sequence (P03952 20-390 partner limits assumed): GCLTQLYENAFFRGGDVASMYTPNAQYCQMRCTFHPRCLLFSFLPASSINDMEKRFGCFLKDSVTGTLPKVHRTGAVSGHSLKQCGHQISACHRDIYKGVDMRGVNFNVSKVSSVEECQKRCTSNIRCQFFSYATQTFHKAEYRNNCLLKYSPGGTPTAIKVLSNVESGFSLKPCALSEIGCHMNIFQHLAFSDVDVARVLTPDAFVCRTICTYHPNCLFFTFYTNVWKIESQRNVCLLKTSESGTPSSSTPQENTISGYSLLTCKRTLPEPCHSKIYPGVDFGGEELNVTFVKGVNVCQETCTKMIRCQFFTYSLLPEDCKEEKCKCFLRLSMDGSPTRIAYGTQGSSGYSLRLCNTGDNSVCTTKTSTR

Molecule | IC50 (human Plasma Kallikrein [1]) | EC50 (human Plasma Kallikrein [2]) | AUC ([3]; rat, read-out: AUC) | AUC [3]
Cc1cc(N)nc(C)c1CNC(=O)c1nn(Cc2ccc3ncc(Cl)cc3c2)nc1C#N [Example 95, N-((6-amino-2,4-dimethylpyridin-3-yl)methyl)-2-((3-chloroquinolin-6-yl)methyl)-5-cyano-2H-1,2,3-triazole-4-carboxamide] | < 100 nM | < 100 nM | 100 to 1000 ng·h/mL | 
Cc1cnc2ccc(Cn3cc(C(=O)NCc4ccc(N)nc4C)c(C#N)n3)cc2c1 [Example 82, N-((6-amino-2-methylpyridin-3-yl)methyl)-3-cyano-1-((3-methylquinolin-6-yl)methyl)-1H-pyrazole-4-carboxamide] | < 100 nM | < 100 nM | 100 to 1000 ng·h/mL | 
Cc1cc(N)nc(C)c1CNC(=O)c1cn(Cc2ccc3ncc(C(F)(F)F)cc3c2)nc1C#N [Example 73, N-((6-amino-2,4-dimethylpyridin-3-yl)methyl)-3-cyano-1-((3-(trifluoromethyl)quinolin-6-yl)methyl)-1H-pyrazole-4-carboxamide] | < 100 nM | < 100 nM | 100 to 1000 ng·h/mL | 
Cc1cnc2ccc(Cn3cc(C(=O)NCc4c(C)cc(N)nc4C)c(C#N)n3)cc2c1 [Example 81, N-((6-amino-2,4-dimethylpyridin-3-yl)methyl)-3-cyano-1-((3-methylquinolin-6-yl)methyl)-1H-pyrazole-4-carboxamide] | < 100 nM | < 100 nM | 100 to 1000 ng·h/mL | 
Cc1cc(N)nc(C)c1CNC(=O)c1cn(Cc2cc(C(C)(C)O)c3ncc(Cl)cc3c2)nc1C#N [Example 58, N-((6-amino-2,4-dimethylpyridin-3-yl)methyl)-1-((3-chloro-8-(2-hydroxypropan-2-yl)quinolin-6-yl)methyl)-3-cyano-1H-pyrazole-4-carboxamide] | < 100 nM | < 100 nM | < 100 ng·h/mL | 
2-amino-N-((6-amino-2,4-dimethylpyridin-3-yl)methyl)-1-((3-chloroquinolin-6-yl)methyl)-1H-imidazole-4-carboxamide [Example 24] | < 100 nM | < 100 nM |  | B (>100 ng · h/mL to ≤1000 ng · h/mL)
Cc1cc(N)nc(C)c1CNC(=O)c1cnn(Cc2ccc3ncc(Cl)cc3c2)n1 [Example 21, N-((6-amino-2,4-dimethylpyridin-3-yl)methyl)-2-((3-chloroquinolin-6-yl)methyl)-2H-1,2,3-triazole-4-carboxamide] | < 100 nM | < 100 nM | 1000 to 10000 ng·h/mL | 
Cc1cc(N)nc(C)c1CNC(=O)c1nnc(Cc2ccc3ncc(Cl)cc3c2)o1 [Example 30, N-((6-amino-2,4-dimethylpyridin-3-yl)methyl)-5-((3-chloroquinolin-6-yl)methyl)-1,3,4-oxadiazole-2-carboxamide] | < 100 nM | < 100 nM | 1000 to 10000 ng·h/mL | 
Cc1cc(N)nc(C)c1CNC(=O)c1nnc(Cc2cc(F)c3ncc(Cl)cc3c2)o1 [Example 75, N-((6-amino-2,4-dimethylpyridin-3-yl)methyl)-5-((3-chloro-8-fluoroquinolin-6-yl)methyl)-1,3,4-oxadiazole-2-carboxamide] | < 100 nM | < 100 nM | 1000 to 10000 ng·h/mL | 
Cc1cc(N)nc(C)c1CNC(=O)c1noc(Cc2ccc3ncc(Cl)cc3c2)n1 [Example 7, N-((6-amino-2,4-dimethylpyridin-3-yl)methyl)-5-((3-chloroquinolin-6-yl)methyl)-1,2,4-oxadiazole-3-carboxamide] | < 100 nM | < 100 nM | 1000 to 10000 ng·h/mL | 
Cc1cc(N)nc(C)c1CNC(=O)c1nc(N)n(Cc2ccc3ncc(Cl)cc3c2)n1 [Example 20, 5-amino-N-((6-amino-2,4-dimethylpyridin-3-yl)methyl)-1-((3-chloroquinolin-6-yl)methyl)-1H-1,2,4-triazole-3-carboxamide] | < 100 nM | < 100 nM | < 100 ng·h/mL | 
N#Cc1nn(Cc2cc(F)c3ncc(Cl)cc3c2)cc1C(=O)NCc1ccc2c(N)nccc2c1 [Example 54, N-((1-aminoisoquinolin-6-yl)methyl)-1-((3-chloro-8-fluoroquinolin-6-yl)methyl)-3-cyano-1H-pyrazole-4-carboxamide] | < 100 nM | < 100 nM | < 100 ng·h/mL | 
Cc1cc(N)nc(C)c1CNC(=O)c1cnc(Cc2ccc3ncc(Cl)cc3c2)[nH]1 [Example 5, N-((6-amino-2,4-dimethylpyridin-3-yl)methyl)-2-((3-chloroquinolin-6-yl)methyl)-1H-imidazole-5-carboxamide] | < 100 nM | < 100 nM |  | BLQ
Cc1cc(N)nc(C)c1CNC(=O)c1cnn(Cc2ccc3ncc(Cl)cc3c2)c1 [Example 2, N-((6-amino-2,4-dimethylpyridin-3-yl)methyl)-1-((3-chloroquinolin-6-yl)methyl)-1H-pyrazole-4-carboxamide] | < 100 nM | < 100 nM | 100 to 1000 ng·h/mL | 
Cc1cc(N)nc(C)c1CNC(=O)c1cn(Cc2ccc3ncc(C4CC4)cc3c2)nc1C#N [Example 65, N-((6-amino-2,4-dimethylpyridin-3-yl)methyl)-3-cyano-1-((3-cyclopropylquinolin-6-yl)methyl)-1H-pyrazole-4-carboxamide] | < 100 nM | < 100 nM | 100 to 1000 ng·h/mL | 
Cc1cnc2c(S(C)(=O)=O)cc(Cn3cc(C(=O)NCc4c(C)cc(N)nc4C)c(C#N)n3)cc2c1 [Example 61, N-((6-amino-2,4-dimethylpyridin-3-yl)methyl)-3-cyano-1-((3-methyl-8-(methylsulfonyl)quinolin-6-yl)methyl)-1H-pyrazole-4-carboxamide] | < 100 nM | < 100 nM | < 100 ng·h/mL | 
Cc1cc(N)nc(C)c1CNC(=O)c1nn(Cc2ccc3ncc(Cl)cc3c2)cc1C(F)(F)F [Example 22, N-((6-amino-2,4-dimethylpyridin-3-yl)methyl)-1-((3-chloroquinolin-6-yl)methyl)-4-(trifluoromethyl)-1H-pyrazole-3-carboxamide] | < 100 nM | < 100 nM | 100 to 1000 ng·h/mL | 
CC(C)(O)c1cc(Cn2cc(C(=O)NCc3ccc4c(N)nccc4c3)c(C#N)n2)cc2cc(Cl)cnc12 [Example 59, N-((1-aminoisoquinolin-6-yl)methyl)-1-((3-chloro-8-(2-hydroxypropan-2-yl)quinolin-6-yl)methyl)-3-cyano-1H-pyrazole-4-carboxamide] | < 100 nM | < 100 nM | < 100 ng·h/mL | 
